Data set [1] concerns Human hepatocytes (HepaRG cells). The experiment in a line: Human cytotoxicity assay in vitro (CellTiter-Glo), hepatocytes. Type of data set: cell-based. Particulars: hepatocyte cytotoxicity score; 24 h exposure. (In general: Cellular ATP, detected with luciferase, serves as a proxy for viable cell number.)
Data set [2] relates to Escherichia coli TolC mutant strain ΔtolC. The class given is cell-based. Particulars: Table BB; MIC score.
Data set [3] concerns Human keratinocytes (HaCaT cells). The experiment in a line: Human cytotoxicity assay in vitro (CellTiter-Glo), keratinocytes. The class given is cell-based. Particulars: keratinocyte cytotoxicity score; 24 h exposure.
Data set [4] relates to linezolid-resistant Staphylococcus aureus (from MRSA, COL). The experiment in a line: microbe, parasite or virus in culture. The class given is cell-based. Particulars: for antibacterial activity MRSA strains with additional resistance to L: Table BB, MIC score, linezolid-resistant MRSA.
Data set [5] concerns vancomycin-resistant Staphylococcus aureus (from MRSA, COL). The experiment in a line: microbe, parasite or virus in culture. As to conditions: for antibacterial activity MRSA strains with additional resistance to V: Table BB, MIC score, vancomycin-resistant MRSA. Type of data set: cell-based.
Data set [6] deals with Enterococcus faecium (AGR15, ATCCBAA-2127). The experiment in a line: Broth microdilution MIC assay, Enterococcus faecium. Type of data set: cell-based. Particulars: Table BB; MIC score.
In data set [7] the test system is moenomycin-resistant Staphylococcus aureus (from MRSA, COL). Particulars: Table BB, MIC score.
The test system of data set [8] is Streptococcus pneumoniae (Chester, ATCC49619). The experiment in a line: Broth microdilution MIC assay, Streptococcus pneumoniae. Type of data set: cell-based. As to conditions: Table AA; MIC score. In general terms: In broth dilution the organism is exposed to a series of concentrations in liquid medium.
In data set [9] the test system is Staphylococcus aureus MRSA (COL). Type of data set: cell-based. As to conditions: Table AA; MIC score.
Setting [10] is: Staphylococcus aureus, MRSA, read-out: MIC for the resistant strain.

≈ marks a conversion by molar mass, not a printed value.

In the case of `Cc1[nH]c(-c2ccc(-c3ccccc3F)s2)nc1-c1ccccc1` [Compound 15], the “cytotoxicity cell line H” value in data set [1] is 1 (compounds not causing a loss of viability at concentrations between 25 and 50 μM). In addition, the “antibacterial activity EC Δ” value in [2] is 1 (the compound has an MIC100 of 20-50 μg/ml or an MIC50 of <10 μg/ml). Moreover, the “cytotoxicity cell line K” value in data set [3] is listed as 1 (compounds causing less than 50% inhibition of cell viability at 50 μM).
For the molecule `Cc1nc(-c2ccc(-c3ccccc3OC(F)(F)F)o2)[nH]c1-c1ccccc1Cl` [Compound 19], in [1], the “cytotoxicity cell line H” value amounted to 3. Also, the “antibacterial activity MRSA strains with additional resistance to L” value (“antibacterial activity MRSA strains … to L” below) in [4] was 3 (the compound has an MIC100 of 3-10 μg/ml). Moreover, the “cytotoxicity cell line K” value in [3] is listed as 0 (compounds not causing loss of cell viability at concentrations of 50 μM or higher). Besides, the “antibacterial activity MRSA strains with additional resistance to V” value (“antibacterial activity MRSA strains … to V” below) in data set [5] is listed as 1 (the compound has an MIC100 of 20-50 μg/ml or an MIC50 of <10 μg/ml).
Turning to `Cc1[nH]c(-c2ccc(-c3ccccc3OC(F)(F)F)o2)nc1-c1ccc(F)cc1` [Compound 23, 4-(4-Fluoro-phenyl)-5-methyl-2-[5-(2-trifluoromethoxy-phenyl)-furan-2-yl]-1H-imidazole], the “antibacterial activity EFm” value in data set [6] is 1 (the compound has an MIC100 of 20-50 μg/ml or an MIC50 of <10 μg/ml). Besides, the “cytotoxicity cell line H” value in data set [1] worked out at 3. The “cytotoxicity cell line K” value in [3] is recorded as 2 (compounds causing>50% inhibition of cell viability at 25 μM).
Regarding `Cc1[nH]c(-c2ccc(-c3ccccc3OC(F)(F)F)o2)nc1-c1ccc(Cl)cc1` [Compound 24], the “cytotoxicity cell line H” value in data set [1] is given as 2. Also, the “antibacterial activity MRSA strains … to L” value in data set [4] is given as 3 (the compound has an MIC100 of 3-10 μg/ml). Moreover, in data set [3], the “cytotoxicity cell line K” value is 2 (compounds causing>50% inhibition of cell viability at 25 μM). The “antibacterial activity MRSA strains with additional resistance to M” value (from here on “antibacterial activity MRSA strains … to M”) in data set [7] is given as 3 (the compound has an MIC100 of 3-10 μg/ml). Moreover, the “antibacterial activity MRSA strains … to V” value in [5] was 4 (the compound has an MIC of 1 μg/ml to 3 μg/ml for preventing bacterial growth 100% (MIC100)).
Turning to `Cc1[nH]c(-c2ccc(-c3ccc(Cl)c(C(F)(F)F)c3)o2)nc1-c1ccc(F)cc1` [Compound 42], the “antibacterial activity EFm” value in data set [6] is given as 1 (the compound has an MIC100 of 20-50 μg/ml or an MIC50 of <10 μg/ml). Further, the “cytotoxicity cell line H” value in [1] is 1 (compounds not causing a loss of viability at concentrations between 25 and 50 μM). Also, the “antibacterial activity MRSA strains … to L” value in [4] is recorded as 4 (the compound has an MIC of 1 μg/ml to 3 μg/ml for preventing bacterial growth 100% (MIC100)). The “cytotoxicity cell line K” value in data set [3] is listed as 3 (compounds causing more than 50% inhibition of cell viability at 10 μM). Further, the “antibacterial activity MRSA strains … to M” value in data set [7] is 4 (the compound has an MIC of 1 μg/ml to 3 μg/ml for preventing bacterial growth 100% (MIC100)). Also, the “antibacterial activity MRSA strains … to V” value in data set [5] is on record as 4 (the compound has an MIC of 1 μg/ml to 3 μg/ml for preventing bacterial growth 100% (MIC100)).
Consider `Cc1nc(-c2ccc(-c3ccc(Cl)c(OC(F)(F)F)c3)o2)[nH]c1-c1ccc(Cl)cc1` [Compound 44], for which, in [6], the “antibacterial activity EFm” value is given as 1 (the compound has an MIC100 of 20-50 μg/ml or an MIC50 of <10 μg/ml). Also, the “cytotoxicity cell line H” value in data set [1] is on record as 2.
For the molecule `Cc1[nH]c(-c2ccc(-c3ccc(C(F)(F)F)cc3)o2)nc1-c1ccc(Cl)cc1` [Compound 47], the “antibacterial activity EFm” value in [6] is listed as 1 (the compound has an MIC100 of 20-50 μg/ml or an MIC50 of <10 μg/ml). Also, the “cytotoxicity cell line H” value in data set [1] is 1 (compounds not causing a loss of viability at concentrations between 25 and 50 μM). In [3], the “cytotoxicity cell line K” value is on record as 2 (compounds causing>50% inhibition of cell viability at 25 μM).
As for `Cc1[nH]c(-c2ccc(-c3ccc(C(F)(F)F)c(Cl)c3)o2)nc1-c1ccc(F)cc1` [Compound 49], the “antibacterial activity EFm” value in data set [6] is given as 1 (the compound has an MIC100 of 20-50 μg/ml or an MIC50 of <10 μg/ml). For the same molecule, the “cytotoxicity cell line H” value in [1] amounted to 3. Moreover, in [4], the “antibacterial activity MRSA strains … to L” value was 2 (the compound has an MIC100 of 11-20 μg/ml). For the same molecule, in [3], the “cytotoxicity cell line K” value was 2 (compounds causing>50% inhibition of cell viability at 25 μM). Moreover, the “antibacterial activity MRSA strains … to M” value in data set [7] is on record as 3 (the compound has an MIC100 of 3-10 μg/ml). In addition, the “antibacterial activity MRSA strains … to V” value in data set [5] is given as 3 (the compound has an MIC100 of 3-10 μg/ml).
With `FC(F)(F)Oc1ccccc1-c1ccc(-c2nc(Cl)c(-c3ccccc3)[nH]2)o1` [Compound 64], the “cytotoxicity cell line H” value in data set [1] was determined as 3. In data set [3], the “cytotoxicity cell line K” value was 3 (compounds causing more than 50% inhibition of cell viability at 10 μM). Further, the “antibacterial activity MRSA strains … to M” value in data set [7] was 4 (the compound has an MIC of 1 μg/ml to 3 μg/ml for preventing bacterial growth 100% (MIC100)). For the same molecule, the “antibacterial activity MRSA strains … to V” value in data set [5] is 4 (the compound has an MIC of 1 μg/ml to 3 μg/ml for preventing bacterial growth 100% (MIC100)).
With `Cc1ccccc1-c1c[nH]c(-c2ccc(-c3ccccc3OC(F)(F)F)o2)n1` [Compound 66], the “cytotoxicity cell line H” value in data set [1] was 3. In data set [4], the “antibacterial activity MRSA strains … to L” value is listed as 4 (the compound has an MIC of 1 μg/ml to 3 μg/ml for preventing bacterial growth 100% (MIC100)). Besides, the “cytotoxicity cell line K” value in [3] was 1 (compounds causing less than 50% inhibition of cell viability at 50 μM). Besides, the “antibacterial activity MRSA strains … to M” value in data set [7] is 3 (the compound has an MIC100 of 3-10 μg/ml). Moreover, the “antibacterial activity MRSA strains … to V” value in data set [5] is recorded as 3 (the compound has an MIC100 of 3-10 μg/ml).
Consider `Cc1ccccc1-c1cnc(-c2ccc(-c3ccccc3C(F)(F)F)o2)[nH]1` [Compound 69], for which the “cytotoxicity cell line H” value in [1] was determined as 2. The “antibacterial activity EC Δ” value in [2] is recorded as 1 (the compound has an MIC100 of 20-50 μg/ml or an MIC50 of <10 μg/ml). For the same molecule, the “cytotoxicity cell line K” value in data set [3] was 1 (compounds causing less than 50% inhibition of cell viability at 50 μM).
Take `Cc1[nH]c(-c2ccc(-c3ccccc3)s2)nc1-c1ccccc1` [Compound 74]: the “cytotoxicity cell line H” value in data set [1] is 1 (compounds not causing a loss of viability at concentrations between 25 and 50 μM). For the same molecule, the “cytotoxicity cell line K” value in data set [3] is reported as 3 (compounds causing more than 50% inhibition of cell viability at 10 μM).
Turning to `Fc1ccc(-c2ccc(-c3nc4ccccc4[nH]3)o2)cc1` [Compound 121], the “Antibacterial activity Streptococcus pneumoniae” value in data set [8] is “inactive”. In addition, in data set [9], the “Antibacterial activity Staphylococcus aureus (MRSA)” value was “inactive”.
In the case of `Fc1ccc(-c2ccc(-c3nc4ccccc4[nH]3)o2)c(F)c1` [Compound 122], in data set [8], the “Antibacterial activity Streptococcus pneumoniae” value is “inactive”. Also, in [9], the “Antibacterial activity Staphylococcus aureus (MRSA)” value was “inactive”.
Regarding `CC(=O)NC[C@H]1CN(c2ccc(N3CCOCC3)c(F)c2)C(=O)O1` [linezolid, reference compound], the MIC in data set [4] (setting [10]) was found to be 7.5 µg/mL (≈ 22.2 µM).
As to `CN[C@H](CC(C)C)C(=O)N[C@H]1C(=O)N[C@@H](CC(N)=O)C(=O)N[C@H]2C(=O)N[C@H]3C(=O)N[C@H](C(=O)N[C@H](C(=O)O)c4cc(O)cc(O)c4-c4cc3ccc4O)[C@H](O)c3ccc(c(Cl)c3)Oc3cc2cc(c3O[C@@H]2O[C@H](CO)[C@@H](O)[C@H](O)[C@H]2O[C@H]2C[C@](C)(N)[C@H](O)[C@H](C)O2)Oc2ccc(cc2Cl)[C@H]1O` [vancomycin, Vancomycin, reference compound], the MIC in [5] (setting [10]) was determined as 20 µg/mL (≈ 13.8 µM).

The record behind these values is US10314820B2, “Imidazole-based heterocyclic compounds” (priority 2014, dated 2019).
